Experimental data published in PubChem BioAssay AID1259407 (Chemical Carcinogenesis Research Information System (CCRIS), 2018).
Activity calls are given as the source filed them. How the calls were made is not given here.

Test system: CCRIS mutagenicity, Ames/micronucleus/aberration tests
Test: CCRIS mutagenicity studies
[1] = Test System: AMES SALMONELLA TYPHIMURIUM, Strain/Indicator: TA100, Metabolic Activation: NONE, Method: STANDARD PLATE
[2] = Test System: AMES SALMONELLA TYPHIMURIUM, Strain/Indicator: TA98, Metabolic Activation: NONE, Method: STANDARD PLATE
[3] = Test System: AMES SALMONELLA TYPHIMURIUM, Strain/Indicator: TA100, Metabolic Activation: RAT, LIVER, S-9, AROCLOR 1254, Method: STANDARD PLATE

SMILES: OC1C2OC2c2cccc3c2C1(O)c1ccccc1-3 (centres undefined)
- mutagenic call (Test System: AMES SALMONELLA TYPHIMURIUM, Strain/Indicator: TM677, Metabolic Activation: NONE, Method: PREINCUBATION): inactive; negative
- mutagenic call (Test System: AMES SALMONELLA TYPHIMURIUM, Strain/Indicator: TM677, Metabolic Activation: RAT, LIVER, POSTMITOCHONDRIAL SUPERNATANT, AROCLOR 1254, Method: PREINCUBATION): inactive; negative

SMILES: Fc1ccc(CCl)cc1
- mutagenic call [1]: inactive; negative

SMILES: Nc1ccc2ccccc2c1
- mutagenic call (Test System: AMES SALMONELLA TYPHIMURIUM, Strain/Indicator: TA98(1,8-DNP6), Metabolic Activation: PLANT CELLS, Method: PREINCUBATION): inactive; negative
- mutagenic call (Test System: AMES SALMONELLA TYPHIMURIUM, Strain/Indicator: TA98, Metabolic Activation: HAMSTER, LIVER, S-9, AROCLOR 1254 (30%), Method: PREINCUBATION): active; positive
- mutagenic call (Test System: AMES SALMONELLA TYPHIMURIUM, Strain/Indicator: TA98, Metabolic Activation: HUMAN, RED BLOOD CELL, CYTOSOL, Method: PREINCUBATION): active; positive
- mutagenic call (Test System: AMES SALMONELLA TYPHIMURIUM, Strain/Indicator: TA98, Metabolic Activation: MOUSE, LIVER, S-9, PHENOBARBITAL AND BETA-NAPHTHOFLAVONE, Method: STANDARD PLATE): active; positive
- mutagenic call (Test System: AMES SALMONELLA TYPHIMURIUM, Strain/Indicator: TA98, Metabolic Activation: MOUSE, LIVER, S-9, PHENOBARBITAL, BETA-NAPHTHOFLAVONE, ISOSAFROLE, ETHANOL, PREGNENOLONE AND 16ALPHA-CARBONITRILE, Method: STANDARD PLATE): active; positive
- mutagenic call (Test System: AMES SALMONELLA TYPHIMURIUM, Strain/Indicator: TA98, Metabolic Activation: NONE, Method: PREINCUBATION): inactive; negative
- mutagenic call [2]: inactive; negative
- mutagenic call (Test System: AMES SALMONELLA TYPHIMURIUM, Strain/Indicator: TA98, Metabolic Activation: PLANT CELLS, Method: PREINCUBATION): inactive; negative
- mutagenic call (Test System: AMES SALMONELLA TYPHIMURIUM, Strain/Indicator: TA98, Metabolic Activation: RAT, LIVER, S-9, AROCLOR 1254 (2%), Method: STANDARD PLATE): active; positive
- mutagenic call (Test System: AMES SALMONELLA TYPHIMURIUM, Strain/Indicator: TA98, Metabolic Activation: RAT, LIVER, S-9, AROCLOR 1254 (30%), Method: PREINCUBATION): active; positive
- mutagenic call (Test System: AMES SALMONELLA TYPHIMURIUM, Strain/Indicator: TA98, Metabolic Activation: RAT, LIVER, S-9, AROCLOR 1254, Method: STANDARD PLATE): inactive; negative
- mutagenic call (Test System: AMES SALMONELLA TYPHIMURIUM, Strain/Indicator: TA98, Metabolic Activation: RAT, LIVER, S-9, KANECHLOR 500 OR PHENOBARBITAL AND BETA-NAPHTHOFLAVONE, Method: PREINCUBATION): active; positive
- mutagenic call (Test System: AMES SALMONELLA TYPHIMURIUM, Strain/Indicator: TA100, Metabolic Activation: HAMSTER, LIVER, S-9, AROCLOR 1254 (30%), Method: PREINCUBATION): active; positive
- mutagenic call (Test System: AMES SALMONELLA TYPHIMURIUM, Strain/Indicator: TA100, Metabolic Activation: NONE, Method: PREINCUBATION): inactive; negative
- mutagenic call [1]: inactive; negative
- mutagenic call (Test System: AMES SALMONELLA TYPHIMURIUM, Strain/Indicator: TA100, Metabolic Activation: RAT, LIVER, S-9, AROCLOR 1254 (10%) (WITHOUT ADDED COFACTORS), Method: STANDARD PLATE): inactive; negative
- mutagenic call (Test System: AMES SALMONELLA TYPHIMURIUM, Strain/Indicator: TA100, Metabolic Activation: RAT, LIVER, S-9, AROCLOR 1254 (30%), Method: PREINCUBATION): active; positive
- mutagenic call [3]: active; positive
- mutagenic call (Test System: AMES SALMONELLA TYPHIMURIUM, Strain/Indicator: TA100, Metabolic Activation: RAT, LIVER, S-9, AROCLOR (10%), Method: STANDARD PLATE): active; positive
- mutagenic call (Test System: AMES SALMONELLA TYPHIMURIUM, Strain/Indicator: TA100, Metabolic Activation: RAT, LIVER, S-9, KANECHLOR 500 OR PHENOBARBITAL AND BETA-NAPHTHOFLAVONE, Method: PREINCUBATION): active; positive
- mutagenic call (Test System: AMES SALMONELLA TYPHIMURIUM, Strain/Indicator: TA100, Metabolic Activation: RAT, LIVER, S-9, KC500 OR PHENOBARBITAL, Method: LIQUID SUSPENSION): active; positive
- mutagenic call (Test System: AMES SALMONELLA TYPHIMURIUM, Strain/Indicator: TA100, Metabolic Activation: RAT, LIVER, S-9, TCDD, Method: STANDARD PLATE): active; positive
- mutagenic call (Test System: AMES SALMONELLA TYPHIMURIUM, Strain/Indicator: TA100, Metabolic Activation: S-9, Method: FLUCTUATION TEST): active; positive
- mutagenic call (Test System: AMES SALMONELLA TYPHIMURIUM, Strain/Indicator: TA1535, Metabolic Activation: RAT, LIVER, S-9, AROCLOR 1254, Method: STANDARD PLATE): active; positive
- mutagenic call (Test System: AMES SALMONELLA TYPHIMURIUM, Strain/Indicator: TA1535, Metabolic Activation: RAT, LIVER, S-9, AROCLOR (10%), Method: STANDARD PLATE): active; positive
- mutagenic call (Test System: AMES SALMONELLA TYPHIMURIUM, Strain/Indicator: TA1535, Metabolic Activation: RAT, LIVER, S-9, PHENOBARBITAL, Method: STANDARD PLATE): active; positive
- mutagenic call (Test System: AMES SALMONELLA TYPHIMURIUM, Strain/Indicator: YG1024, Metabolic Activation: PLANT CELLS, Method: PREINCUBATION): inactive; negative
- mutagenic call (Test System: CHINESE HAMSTER V-79, Strain/Indicator: V-79/6-THIOGUANINE, Metabolic Activation: NONE, Method: SUSPENSION/PLATE): inactive; negative
- mutagenic call (Test System: CHINESE HAMSTER V-79, Strain/Indicator: V-79/6-THIOGUANINE, Metabolic Activation: RAT, LIVER, S-9, PHENOBARBITAL AND BETA-NAPHTHOFLAVONE, Method: SUSPENSION/PLATE): active; positive
- mutagenic call (Test System: E. COLI, Strain/Indicator: WP2 UVRA, Metabolic Activation: HAMSTER, LIVER, S-9, AROCLOR 1254, Method: STANDARD PLATE): inactive; negative
- mutagenic call (Test System: E. COLI, Strain/Indicator: WP2 UVRA, Metabolic Activation: HAMSTER, LIVER, S-9, Method: STANDARD PLATE): inactive; negative
- mutagenic call (Test System: E. COLI, Strain/Indicator: WP2 UVRA, Metabolic Activation: MOUSE, LIVER, S-9, AROCLOR 1254, Method: STANDARD PLATE): inactive; negative
- mutagenic call (Test System: E. COLI, Strain/Indicator: WP2 UVRA, Metabolic Activation: MOUSE, LIVER, S-9, Method: STANDARD PLATE): inactive; negative
- mutagenic call (Test System: E. COLI, Strain/Indicator: WP2 UVRA, Metabolic Activation: NONE, Method: STANDARD PLATE): inactive; negative
- mutagenic call (Test System: E. COLI, Strain/Indicator: WP2 UVRA, Metabolic Activation: RAT, LIVER, S-9, AROCLOR 1254, Method: STANDARD PLATE): inactive; negative
- mutagenic call (Test System: E. COLI, Strain/Indicator: WP2 UVRA, Metabolic Activation: RAT, LIVER, S-9, Method: STANDARD PLATE): inactive; negative

SMILES: O=C1c2ccccc2-c2c1c1ccccc1c(=O)n2CCNCCO
- mutagenic call (Test System: AMES SALMONELLA TYPHIMURIUM, Strain/Indicator: TA97, Metabolic Activation: NONE, Method: STANDARD PLATE): inactive; negative
- mutagenic call (Test System: AMES SALMONELLA TYPHIMURIUM, Strain/Indicator: TA97, Metabolic Activation: RAT, LIVER, S-9, PHENOBARBITAL AND ALPHA-NAPHTHOFLAVONE, Method: STANDARD PLATE): inactive; negative
- mutagenic call [2]: inactive; negative
- mutagenic call (Test System: AMES SALMONELLA TYPHIMURIUM, Strain/Indicator: TA98, Metabolic Activation: RAT, LIVER, S-9, PHENOBARBITAL AND ALPHA-NAPHTHOFLAVONE, Method: STANDARD PLATE): inactive; negative
- mutagenic call [1]: inactive; negative
- mutagenic call (Test System: AMES SALMONELLA TYPHIMURIUM, Strain/Indicator: TA100, Metabolic Activation: RAT, LIVER, S-9, PHENOBARBITAL AND ALPHA-NAPHTHOFLAVONE, Method: STANDARD PLATE): inactive; negative
- mutagenic call (Test System: AMES SALMONELLA TYPHIMURIUM, Strain/Indicator: TA1535, Metabolic Activation: NONE, Method: STANDARD PLATE): inactive; negative
- mutagenic call (Test System: AMES SALMONELLA TYPHIMURIUM, Strain/Indicator: TA1535, Metabolic Activation: RAT, LIVER, S-9, PHENOBARBITAL AND ALPHA-NAPHTHOFLAVONE, Method: STANDARD PLATE): inactive; negative

SMILES: O=S(=O)(O)N(S(=O)(=O)O)S(=O)(=O)O
- mutagenic call (Test System: AMES SALMONELLA TYPHIMURIUM, Strain/Indicator: G46, Metabolic Activation: RAT, LIVER, S-9, AROCLOR 1254, Method: STANDARD PLATE): inactive; negative
- mutagenic call [3]: inactive; negative
